The values that follow come from ChEMBL document CHEMBL1909046, “DrugMatrix in vitro pharmacology data”.

Each structure is given as a SMILES string.

For the first assay, the target named is T1, 5-hydroxytryptamine receptor 1A (Rattus norvegicus, UniProt P19327). Further: in other assays of this panel Not Active means under 50% inhibition at 10 µM.
T1 sequence (P19327 whole entry): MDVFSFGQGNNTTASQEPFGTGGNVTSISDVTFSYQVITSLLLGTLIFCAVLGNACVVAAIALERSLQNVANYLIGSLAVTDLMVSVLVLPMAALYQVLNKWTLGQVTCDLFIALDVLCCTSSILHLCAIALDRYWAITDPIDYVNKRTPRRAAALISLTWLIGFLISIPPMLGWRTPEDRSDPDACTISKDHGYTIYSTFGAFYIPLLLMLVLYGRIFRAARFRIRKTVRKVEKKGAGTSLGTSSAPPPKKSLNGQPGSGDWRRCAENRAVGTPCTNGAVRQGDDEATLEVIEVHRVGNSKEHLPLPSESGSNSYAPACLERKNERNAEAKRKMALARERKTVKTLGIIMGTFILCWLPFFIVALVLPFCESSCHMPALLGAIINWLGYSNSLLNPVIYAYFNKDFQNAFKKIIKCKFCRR
The assay is classed as cell membranes, CHO-K1, Membrane. The note with it: cho-k1.
Consider `COc1cc(CNC(=O)CCCC/C=C/C(C)C)ccc1O` [CAPSAICIN], for which the IC50 result is reported as “Not Active”.

`CCC[C@@H]1C[C@@H](C(=O)N[C@@H]([C@H]2O[C@H](SC)[C@H](O)[C@@H](O)[C@H]2O)[C@H](C)Cl)N(C)C1` [CLINDAMYCIN]: the IC50 result is “Not Active”.

For the compound `CN1C(=O)CN=C(c2ccccc2)c2cc(Cl)ccc21` [DIAZEPAM], the IC50 entry is on record as “Not Active”.

Consider `CCOC(=O)C1=C(C)NC(C)=C(C(=O)OC)C1c1cccc(Cl)c1Cl` (configuration not stated) [FELODIPINE], for which the IC50 result is “Not Active”.

On to `Cc1cn[nH]c1` [FOMEPIZOLE], for which the IC50 entry is recorded as “Not Active”.

Take `Cc1cnc(C(=O)NCCc2ccc(S(=O)(=O)NC(=O)NC3CCCCC3)cc2)cn1` [GLIPIZIDE]: the IC50 entry was “Not Active”.

Consider `COc1ccccc1OCC(O)CO` (configuration not stated) [GUAIFENESIN], for which the IC50 entry is “Not Active”.

For `C/C=C\c1ccc(O)c(OC)c1` [ISOEUGENOL], the IC50 result is reported as “Not Active”.

`NC[C@H]1O[C@H](O[C@H]2[C@H](O)[C@@H](O[C@H]3O[C@H](CO)[C@@H](O)[C@H](N)[C@H]3O)[C@H](N)C[C@@H]2N)[C@H](O)[C@@H](O)[C@@H]1O` [KANAMYCIN]: the IC50 result is given as “Not Active”.

Regarding `COc1ccc2cc(CCC(C)=O)ccc2c1` [NABUMETONE], the IC50 entry is given as “Not Active”.

Take `OCCN1CCN(CCCN2c3ccccc3Sc3ccc(Cl)cc32)CC1` [PERPHENAZINE]: the IC50 entry is reported as “Not Active”.

In the next assay the target is Insulin receptor (Rattus norvegicus, UniProt P15127). It is filed as cell membranes, Wistar, Liver, Membrane. Further: in other assays of this panel Not Active means under 50% inhibition at 10 µM.
Insulin receptor, sequence (P15127 27-759 limits assumed): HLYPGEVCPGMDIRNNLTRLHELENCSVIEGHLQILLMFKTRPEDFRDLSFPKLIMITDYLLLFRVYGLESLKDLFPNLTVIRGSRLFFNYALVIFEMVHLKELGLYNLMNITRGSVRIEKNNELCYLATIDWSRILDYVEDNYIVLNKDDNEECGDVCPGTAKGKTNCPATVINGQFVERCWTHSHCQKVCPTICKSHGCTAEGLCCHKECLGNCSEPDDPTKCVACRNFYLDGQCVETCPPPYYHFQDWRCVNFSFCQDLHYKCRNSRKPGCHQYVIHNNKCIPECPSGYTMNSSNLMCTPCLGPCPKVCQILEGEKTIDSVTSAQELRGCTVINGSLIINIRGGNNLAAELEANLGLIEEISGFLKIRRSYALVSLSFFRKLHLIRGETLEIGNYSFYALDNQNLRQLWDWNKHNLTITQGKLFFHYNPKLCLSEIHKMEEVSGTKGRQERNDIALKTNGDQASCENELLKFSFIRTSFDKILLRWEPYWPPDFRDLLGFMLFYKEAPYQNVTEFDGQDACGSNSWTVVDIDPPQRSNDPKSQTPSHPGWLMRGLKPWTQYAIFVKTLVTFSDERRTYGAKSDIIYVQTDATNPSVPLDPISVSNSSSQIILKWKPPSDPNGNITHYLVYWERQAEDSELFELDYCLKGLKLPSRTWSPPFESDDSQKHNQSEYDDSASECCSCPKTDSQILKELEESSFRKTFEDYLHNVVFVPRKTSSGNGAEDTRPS
Insulin receptor, sequence (P15127 764-1383 limits assumed): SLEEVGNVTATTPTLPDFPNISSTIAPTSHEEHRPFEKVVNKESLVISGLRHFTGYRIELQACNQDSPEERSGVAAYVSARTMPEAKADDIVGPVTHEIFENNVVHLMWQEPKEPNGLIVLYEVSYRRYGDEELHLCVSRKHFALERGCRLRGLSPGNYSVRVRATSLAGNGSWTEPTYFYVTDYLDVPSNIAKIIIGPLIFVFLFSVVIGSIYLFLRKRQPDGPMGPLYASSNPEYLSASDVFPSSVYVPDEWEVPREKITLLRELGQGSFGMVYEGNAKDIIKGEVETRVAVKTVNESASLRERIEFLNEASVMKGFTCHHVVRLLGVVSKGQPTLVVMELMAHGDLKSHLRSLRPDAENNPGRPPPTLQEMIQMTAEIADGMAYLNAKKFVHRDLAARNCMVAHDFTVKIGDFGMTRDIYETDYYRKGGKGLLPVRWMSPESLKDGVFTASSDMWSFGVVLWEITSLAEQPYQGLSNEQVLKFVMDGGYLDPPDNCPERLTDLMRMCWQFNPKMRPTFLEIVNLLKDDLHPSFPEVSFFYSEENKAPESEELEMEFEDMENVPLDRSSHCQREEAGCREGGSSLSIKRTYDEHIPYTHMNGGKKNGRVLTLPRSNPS
Details: not given
As to `COc1cc(CNC(=O)CCCC/C=C/C(C)C)ccc1O` [CAPSAICIN], the IC50 result is given as “Not Active”.

Take `CCC[C@@H]1C[C@@H](C(=O)N[C@@H]([C@H]2O[C@H](SC)[C@H](O)[C@@H](O)[C@H]2O)[C@H](C)Cl)N(C)C1` [CLINDAMYCIN]: the IC50 entry is “Not Active”.

For `CN1C(=O)CN=C(c2ccccc2)c2cc(Cl)ccc21` [DIAZEPAM], the IC50 entry is given as “Not Active”.

Consider `CCOC(=O)C1=C(C)NC(C)=C(C(=O)OC)C1c1cccc(Cl)c1Cl` (configuration not stated) [FELODIPINE], for which the IC50 result was “Not Active”.

On to `Cc1cn[nH]c1` [FOMEPIZOLE], for which the IC50 result is listed as “Not Active”.

Turning to `Cc1cnc(C(=O)NCCc2ccc(S(=O)(=O)NC(=O)NC3CCCCC3)cc2)cn1` [GLIPIZIDE], the IC50 entry was “Not Active”.

`COc1ccccc1OCC(O)CO` (configuration not stated) [GUAIFENESIN]: the IC50 entry is reported as “Not Active”.

For `C/C=C\c1ccc(O)c(OC)c1` [ISOEUGENOL], the IC50 entry is “Not Active”.

Consider `NC[C@H]1O[C@H](O[C@H]2[C@H](O)[C@@H](O[C@H]3O[C@H](CO)[C@@H](O)[C@H](N)[C@H]3O)[C@H](N)C[C@@H]2N)[C@H](O)[C@@H](O)[C@@H]1O` [KANAMYCIN], for which the IC50 result is “Not Active”.

Turning to `COc1ccc2cc(CCC(C)=O)ccc2c1` [NABUMETONE], the IC50 entry is “Not Active”.

`OCCN1CCN(CCCN2c3ccccc3Sc3ccc(Cl)cc32)CC1` [PERPHENAZINE]: the IC50 entry is on record as “Not Active”.

In a further assay the target is Sigma non-opioid intracellular receptor 1 (Homo sapiens, UniProt Q99720). The assay is described as follows: DRUGMATRIX: Sigma1 radioligand binding (ligand: [3H] Haloperidol). It is filed as cell membranes, Jurkat, Membrane. The note with it: jurkat; Not Active = under 50% inhibition at 10 µM.
Sigma non-opioid intracellular receptor 1, sequence (Q99720 whole entry): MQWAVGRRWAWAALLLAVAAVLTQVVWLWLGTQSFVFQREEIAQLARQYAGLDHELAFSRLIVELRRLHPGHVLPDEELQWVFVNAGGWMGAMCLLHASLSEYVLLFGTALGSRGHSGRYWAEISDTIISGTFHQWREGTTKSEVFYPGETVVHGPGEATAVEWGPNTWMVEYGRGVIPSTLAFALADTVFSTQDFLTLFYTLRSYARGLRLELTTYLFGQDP
`COc1cc(CNC(=O)CCCC/C=C/C(C)C)ccc1O` [CAPSAICIN]: the IC50 result is given as “Not Active”.

In the case of `CCC[C@@H]1C[C@@H](C(=O)N[C@@H]([C@H]2O[C@H](SC)[C@H](O)[C@@H](O)[C@H]2O)[C@H](C)Cl)N(C)C1` [CLINDAMYCIN], the IC50 entry is recorded as “Not Active”.

Turning to `CN1C(=O)CN=C(c2ccccc2)c2cc(Cl)ccc21` [DIAZEPAM], the IC50 result is on record as “Not Active”.

As for `CCOC(=O)C1=C(C)NC(C)=C(C(=O)OC)C1c1cccc(Cl)c1Cl` (configuration not stated) [FELODIPINE], the IC50 entry was “Not Active”.

As to `Cc1cn[nH]c1` [FOMEPIZOLE], the IC50 entry was “Not Active”.

Turning to `Cc1cnc(C(=O)NCCc2ccc(S(=O)(=O)NC(=O)NC3CCCCC3)cc2)cn1` [GLIPIZIDE], the IC50 result is reported as “Not Active”.

Take `COc1ccccc1OCC(O)CO` (configuration not stated) [GUAIFENESIN]: the IC50 result is given as “Not Active”.

`C/C=C\c1ccc(O)c(OC)c1` [ISOEUGENOL]: the IC50 result was “Not Active”.

As to `NC[C@H]1O[C@H](O[C@H]2[C@H](O)[C@@H](O[C@H]3O[C@H](CO)[C@@H](O)[C@H](N)[C@H]3O)[C@H](N)C[C@@H]2N)[C@H](O)[C@@H](O)[C@@H]1O` [KANAMYCIN], the IC50 entry is on record as “Not Active”.

Regarding `COc1ccc2cc(CCC(C)=O)ccc2c1` [NABUMETONE], the IC50 result is “Not Active”.

`OCCN1CCN(CCCN2c3ccccc3Sc3ccc(Cl)cc32)CC1` [PERPHENAZINE]: the IC50 entry is recorded as “Not Active”.

Test system in a further assay: not listed separately
The assay is described as follows: DRUGMATRIX: Glutamate, Kainate radioligand binding (ligand: [3H] Kainic acid). It is filed as cell membranes, Rattus norvegicus, Wistar, Brain, Membrane. The conditions noted are these: Not Active = under 50% inhibition at 10 µM.
Take `COc1cc(CNC(=O)CCCC/C=C/C(C)C)ccc1O` [CAPSAICIN]: the IC50 entry was “Not Active” and the Ki result was “Not Active”.

For the compound `CCC[C@@H]1C[C@@H](C(=O)N[C@@H]([C@H]2O[C@H](SC)[C@H](O)[C@@H](O)[C@H]2O)[C@H](C)Cl)N(C)C1` [CLINDAMYCIN], the IC50 result is “Not Active” and the Ki result is “Not Active”.

As to `CN1C(=O)CN=C(c2ccccc2)c2cc(Cl)ccc21` [DIAZEPAM], the IC50 entry was “Not Active” and the Ki result is “Not Active”.

Take `CCOC(=O)C1=C(C)NC(C)=C(C(=O)OC)C1c1cccc(Cl)c1Cl` (configuration not stated) [FELODIPINE]: the IC50 result is “Not Active” and the Ki entry is reported as “Not Active”.

In the case of `Cc1cn[nH]c1` [FOMEPIZOLE], the IC50 result was “Not Active” and the Ki result is reported as “Not Active”.

For the compound `Cc1cnc(C(=O)NCCc2ccc(S(=O)(=O)NC(=O)NC3CCCCC3)cc2)cn1` [GLIPIZIDE], the IC50 result is listed as “Not Active” and the Ki result is “Not Active”.

For the compound `COc1ccccc1OCC(O)CO` (configuration not stated) [GUAIFENESIN], the IC50 entry was “Not Active” and the Ki entry was “Not Active”.

`C/C=C\c1ccc(O)c(OC)c1` [ISOEUGENOL]: the IC50 entry was “Not Active” and the Ki result is listed as “Not Active”.

As to `NC[C@H]1O[C@H](O[C@H]2[C@H](O)[C@@H](O[C@H]3O[C@H](CO)[C@@H](O)[C@H](N)[C@H]3O)[C@H](N)C[C@@H]2N)[C@H](O)[C@@H](O)[C@@H]1O` [KANAMYCIN], the IC50 entry is given as “Not Active” and the Ki result is on record as “Not Active”.

`COc1ccc2cc(CCC(C)=O)ccc2c1` [NABUMETONE]: the IC50 result was “Not Active” and the Ki result is given as “Not Active”.

Turning to `OCCN1CCN(CCCN2c3ccccc3Sc3ccc(Cl)cc32)CC1` [PERPHENAZINE], the IC50 result is recorded as “Not Active” and the Ki entry is listed as “Not Active”.

Test system in a further assay: not listed separately
The assay is described as follows: DRUGMATRIX: Glutamate, NMDA, Phencyclidine radioligand binding (ligand: [3H] TCP). The assay is classed as cell membranes, Rattus norvegicus, Wistar, Cerebral cortex, Membrane. The conditions noted are these: Not Active = under 50% inhibition at 10 µM.
Consider `COc1cc(CNC(=O)CCCC/C=C/C(C)C)ccc1O` [CAPSAICIN], for which the IC50 result is on record as “Not Active” and the Ki entry is “Not Active”.

With `CCC[C@@H]1C[C@@H](C(=O)N[C@@H]([C@H]2O[C@H](SC)[C@H](O)[C@@H](O)[C@H]2O)[C@H](C)Cl)N(C)C1` [CLINDAMYCIN], the IC50 result was “Not Active” and the Ki entry is “Not Active”.

Regarding `CN1C(=O)CN=C(c2ccccc2)c2cc(Cl)ccc21` [DIAZEPAM], the IC50 entry is “Not Active” and the Ki result is reported as “Not Active”.

For the compound `CCOC(=O)C1=C(C)NC(C)=C(C(=O)OC)C1c1cccc(Cl)c1Cl` (configuration not stated) [FELODIPINE], the IC50 result is “Not Active” and the Ki entry is “Not Active”.

As for `Cc1cn[nH]c1` [FOMEPIZOLE], the IC50 entry was “Not Active” and the Ki entry is listed as “Not Active”.

Turning to `Cc1cnc(C(=O)NCCc2ccc(S(=O)(=O)NC(=O)NC3CCCCC3)cc2)cn1` [GLIPIZIDE], the IC50 entry is on record as “Not Active” and the Ki entry is on record as “Not Active”.

With `COc1ccccc1OCC(O)CO` (configuration not stated) [GUAIFENESIN], the IC50 result is “Not Active” and the Ki result is “Not Active”.

Take `C/C=C\c1ccc(O)c(OC)c1` [ISOEUGENOL]: the IC50 result was “Not Active” and the Ki entry is “Not Active”.

Turning to `NC[C@H]1O[C@H](O[C@H]2[C@H](O)[C@@H](O[C@H]3O[C@H](CO)[C@@H](O)[C@H](N)[C@H]3O)[C@H](N)C[C@@H]2N)[C@H](O)[C@@H](O)[C@@H]1O` [KANAMYCIN], the IC50 entry is “Not Active” and the Ki result is reported as “Not Active”.

Take `COc1ccc2cc(CCC(C)=O)ccc2c1` [NABUMETONE]: the IC50 result is “Not Active” and the Ki entry was “Not Active”.

Consider `OCCN1CCN(CCCN2c3ccccc3Sc3ccc(Cl)cc32)CC1` [PERPHENAZINE], for which the IC50 entry is listed as “Not Active” and the Ki entry was “Not Active”.
